We go through four compounds from patent publication US20180360786A1, “(R)-CARBIDOPA ALONE OR IN COMBINATION WITH A STEROID FOR TREATING PAIN, INFLAMMATION, AN INFLAMMATORY DISEASE, AN IMMUNE OR AUTOIMMUNE DISEASE AND TUMOUR GROWTH” (PROXIMAGEN GROUP LIMITED, priority 2015, published 2018).

Each structure is given as a SMILES string. Where two headings read alike, the source gives them in different places. Bounds are passed on as bounds.

Assay [1] deals with T1, human aromatic L-amino acid decarboxylase (DOPA decarboxylase) (Homo sapiens, UniProt P20711).
T1 construct: purchased R&D systems 3564-DC
T1 sequence (P20711 1-480): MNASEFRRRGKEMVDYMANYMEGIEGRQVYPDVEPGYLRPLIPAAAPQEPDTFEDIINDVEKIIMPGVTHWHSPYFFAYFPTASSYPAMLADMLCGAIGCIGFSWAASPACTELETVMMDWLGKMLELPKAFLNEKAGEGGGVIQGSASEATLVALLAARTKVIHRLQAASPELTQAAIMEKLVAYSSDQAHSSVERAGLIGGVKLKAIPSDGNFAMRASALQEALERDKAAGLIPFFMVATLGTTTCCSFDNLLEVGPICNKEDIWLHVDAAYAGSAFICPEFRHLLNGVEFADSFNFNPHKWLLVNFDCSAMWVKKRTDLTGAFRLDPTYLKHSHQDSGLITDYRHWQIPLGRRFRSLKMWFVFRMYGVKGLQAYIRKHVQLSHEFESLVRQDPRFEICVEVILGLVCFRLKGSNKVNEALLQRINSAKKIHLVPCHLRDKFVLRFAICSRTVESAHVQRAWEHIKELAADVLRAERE
Kind of assay: In vitro determination of human aromatic L-amino acid decarboxylase (DOPA decarboxylase) inhibition. Type of assay: biochemical. The note with it: recombinant human DOPA decarboxylase, 500 μM L-Dopa, 60 min pre-incubation. Here is the method: The enzyme reaction of human DOPA decarboxylase was carried out according to the manufacture instructions (R&D systems cat#3564-DC). The assay measured the ability of recombinant human DOPA decarboxylase to convert L-Dopa to dopamine. The dopamine product was measured by its absorbance at 340 nm after derivatization with trinitrobenzene sulphuric acid. Briefly, the reaction was carried out in 50 mM HEPES buffer containing 100 mM NaCl pH 7.2 for 30 min and stopped by inactivation of the enzyme at 95° C. for 2 min. The inhibitory assay was performed by measuring the decarboxylase activity of DOPA decarboxylase with 0.8 μg enzyme, 500 μM L-Dopa, and 100 μM pyridoxal phosphate in the presence or absence of a fixed amount of each compound. Test compounds were pre-incubated for 60 min with DOPA decarboxylase before initiating the assay with the addition of the substrate L-DOPA. Dose response curves were generated to determine the concentration required to inhibit 50% of decarboxylase activity (IC50). Compounds were evaluated in duplicate at 7 concentrations. IC50 values were derived by nonlinear regression analysis.

The next assay concerns the target T2, human VAP-1 (SSAO) (Homo sapiens, UniProt Q16853).
T2 construct: made in house
T2 sequence (Q16853 29-763 limits assumed): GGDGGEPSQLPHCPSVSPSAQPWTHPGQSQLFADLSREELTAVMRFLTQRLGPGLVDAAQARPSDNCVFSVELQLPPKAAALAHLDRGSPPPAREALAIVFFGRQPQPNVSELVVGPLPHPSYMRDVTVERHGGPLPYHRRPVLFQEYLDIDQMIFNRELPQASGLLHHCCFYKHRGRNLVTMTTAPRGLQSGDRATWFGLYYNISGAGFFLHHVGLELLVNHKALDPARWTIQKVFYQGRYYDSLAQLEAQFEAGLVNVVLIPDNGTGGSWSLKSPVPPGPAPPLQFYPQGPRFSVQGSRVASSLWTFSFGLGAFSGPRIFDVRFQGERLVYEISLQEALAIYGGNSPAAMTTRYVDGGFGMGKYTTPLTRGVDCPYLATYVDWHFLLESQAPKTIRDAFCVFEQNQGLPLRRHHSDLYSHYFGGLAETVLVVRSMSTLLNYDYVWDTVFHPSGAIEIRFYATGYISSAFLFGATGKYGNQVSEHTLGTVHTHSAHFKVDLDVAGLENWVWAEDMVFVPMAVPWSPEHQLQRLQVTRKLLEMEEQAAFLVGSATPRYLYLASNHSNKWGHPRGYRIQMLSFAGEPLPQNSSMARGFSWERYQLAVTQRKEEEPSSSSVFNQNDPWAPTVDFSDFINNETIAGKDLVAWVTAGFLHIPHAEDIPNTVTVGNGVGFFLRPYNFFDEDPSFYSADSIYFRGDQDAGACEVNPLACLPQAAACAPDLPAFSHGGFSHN
Kind of assay: In vitro determination of human VAP-1 (SSAO) inhibition (HRP-coupled Amplex Red, benzylamine substrate). Format: biochemical. The note with it: for IC50: purified recombinant human VAP-1 (SSAO), benzylamine 100 μM, room temperature, about 15 min pre-incubation. Here is the method: This assay is performed at room temperature with purified recombinantly expressed human VAP-1 (SSAO). Enzyme was prepared essentially as described in Ohman et al. (Protein Expression and Purification 46 (2006) 321-331). The enzyme activity is assayed with benzylamine as substrate by utilizing the production of hydrogen peroxide in a horseradish peroxidise (HRP) coupled reaction. Briefly, test compounds are dissolved in dimethyl sulfoxide (DMSO) to a concentration of 10 mM. Dose-response measurements are assayed by either creating 1:10 serial dilutions in DMSO to produce a 7 point curve or by making 1:3 serial dilutions in DMSO to produce 11 point curves. The top concentrations are adjusted depending on the potency of the compounds and subsequent dilution in reaction buffer yielded a final DMSO concentration ≤2%.
In a horseradish peroxidise (HRP) coupled reaction, hydrogen peroxide oxidation of 10-acetyl-3,7-dihydroxyphenoxazine produces resorufin, which is a highly fluorescent compound (Zhout and Panchuk-Voloshina. Analytical Biochemistry 253 (1997) 169-174; AmplexR Red Hydrogen Peroxide/peroxidise Assay kit, Invitrogen A22188). Enzyme and compounds in 50 mM sodium phosphate, pH 7.4 are set to pre-incubate in flat-bottomed microtiter plates for approximately 15 minutes before initiating the reaction by addition of a mixture of HRP, benzylamine and Amplex reagent. Benzylamine concentration is fixed at a concentration corresponding to the Michaelis constant, determined using standard procedures. Fluorescence intensity is then measured at several time points during 1-2 hours, exciting at 544 nm and reading the emission at 590 nm. […] The inhibition is measured as % decrease of the signal compared to a control without inhibitor (only diluted DMSO). […] Data is fitted to a four parameter logistic model and IC50 values are calculated, for example by using the GraphPad Prism 4 or XLfit 4 programs.

Another assay concerns CFA induced paw oedema. Briefly: CFA induced paw oedema in rat, paw volume (plethysmometer). Type of assay: in vivo. The note with it: dosed 24 hours post CFA, 3 hours post treatment. Here is the method:
(§1) Assessment of the anti-hyperalgesic properties of (R)-Carbidopa was determined through measurement of weight bearing following CFA induced hypersensitivity. Naive rats distribute their body weight equally between the two hind paws. However, when the injected (left) hind paw is painful, the weight is re-distributed so that less weight is put on the affected paw (decrease in weight bearing on injured paw). Weight bearing through each hind limb was measured using a rat incapacitance tester (Linton Instruments, UK). Rats were placed in the incapacitance tester with the hind paws on separate sensors and the average force exerted by both hind limbs was recorded over 4 seconds. The injection of CFA also induces an oedema that can be assessed by paw volume; this is measured using a plethysmometer. […] Data were analysed by comparing treatment groups to the vehicle control group at each time point. Weight bearing (g) readings were taken for both right and left hind paws and the difference calculated. Data is expressed as % reversal of the hypersensitivity to pain. Paw Volume (mL) readings were taken for the left hind paws. Data are expressed as % reversal of the oedema. Calculation: (post dose reading−pre dose reading)/(naïve reading−pre dose reading)×100, where naive weight bearing difference−pre dose weight bearing difference is defined as the CFA window to be reversed. […]

Assay [2] relates to CFA induced hypersensitivity. Briefly: CFA induced hypersensitivity in rat, weight bearing (incapacitance tester). The note with it: dosed 24 hours post CFA, 1 and 3 hours post treatment. Format: in vivo. Here is the method:
as §1, with “plethysmometer. The rat's hind paw is placed into the cylinder containing a solution and the volume of displaced liquid determines the paw volume. Naive male, Sprague Dawley rats were acclimatised with food and water available ad libitum. Habituation to the incapacitance tester was performed. Baseline weight bearing and paw volume recordings were taken prior to induction of insult. Inflammatory hypersensitivity was induced by intraplantar injection of CFA (100 μl of 1 mg/ml solution) into the left hind paw. A pre-treatment weight bearing and paw volume measurement was taken to assess hypersensitivity 23 hours post-CFA. Animals were then ranked and randomised according to CFA window in a Latin square design.” for “plethysmometer.”

A word on the IC50: it is the concentration that inhibits the measured activity by half.

Turning to `C[C@](Cc1ccc(O)c(O)c1)(NN)C(=O)O` (single isomer, unassigned) [(S)-Carbidopa], the values for the half-maximal inhibitory concentration (IC50) (in assay [1] (read-out: IC50 for inhibition of human aromatic L-amino acid decarboxylase); at human VAP-1 (SSAO)) were 0.19 µM and 0.142 µM, respectively.
Regarding `C[C@](Cc1ccc(O)c(O)c1)(NN)C(=O)O` [(R)-Carbidopa, (R)-carbidopa], the “reduction of paw volume (oedema), Part A, FIG. 2” value with CFA induced paw oedema (3-30 mg/kg alone) is given as “significant reduction of paw volume”. Moreover, the IC50 in assay [1] (did not inhibit up to the maximum concentration tested, read-out: inhibition of human aromatic L-amino acid decarboxylase (IC50)) was over 3 µM; at human VAP-1 (SSAO) it was 0.148 µM. The “selectivity for SSAO/VAP-1 over the enzyme DOPA decarboxylase” value at human VAP-1 (SSAO) (comparison of VAP-1 and DOPA decarboxylase inhibition) is reported as “surprising selectivity”. Moreover, in assay [2] (3-30 mg/kg alone), the “inhibition of the hypersensitivity response (weight bearing), Part A, FIG. 1” value is reported as “dose-dependently inhibited the hypersensitivity response”.
Turning to `COc1ccc2c(c1)c(CC(=O)O)c(C)n2C(=O)c1ccc(Cl)cc1` [Indomethacin, indomethacin], the “reduction of paw oedema” value with CFA induced paw oedema (indomethacin 10 mg/kg) is on record as “significant reduction on paw oedema”. In addition, the “reversal of the hypersensitivity measured using weight bearing” value in assay [2] (indomethacin 10 mg/kg) is recorded as “marked reversal of the hypersensitivity”.
Regarding `C[C@]12C=CC(=O)C=C1CC[C@@H]1[C@@H]2[C@@H](O)C[C@@]2(C)[C@H]1CC[C@]2(O)C(=O)CO` [Prednisolone, prednisolone], the “inhibition of the hypersensitivity response (weight bearing), Part B, FIG. 3” value in assay [2] (0.3-10 mg/kg alone) was “dose-dependently inhibited the hypersensitivity response”.
